Test results from patent US7166612B2, “Methods for reducing platelet activation platelet aggregaton or thrombosis” (Beth Israel Deaconess Medical Center, priority 2001, dated 2007).

Columns and labels:
[1] = test system: platelet F-actin assembly; assay: F-actin assembly (FITC-phalloidin, flow cytometry); type: cell-based; conditions: in words
Source text: To determine whether or not the effects of the pyridazinone compound were limited to inhibition of alpha-granule secretion, the ability of the compound to inhibit F-actin assembly and aIIbβ3 activation was examined. F-actin assembly was detected using FITC-phalloidin and quantified by flow cytometry (Winokur et al., 1995, Blood 85, 1796–804; Oda et al., 1992, Blood 79, 920–7).

platelet GPIIbIIIa = assay: SFLLR-induced GPIIbIIIa activation (PAC-1 antibody, flow cytometry); type: cell-based, human; conditions: in words
Procedure: In order to assay platelet activation by cell surface marker expression, fresh PRP is isolated from donors who have not ingested aspirin for two weeks prior to donation. PRP (40 μl) is incubated with known or suspected inhibitor in DMSO or DMSO alone for 15 min. The sample is then incubated with the indicated agonist (e.g., SFLLR) for 10 min. Following incubation of the sample with the indicated agonist, 10 μl of reaction mixture is transferred to 5 μl of phycoerythrin (PE)-conjugated AC 1.2 anti-P-selectin antibody (for assessment of P-selectin surface expression) or fluorescein isothiocyanate (FITC)-conjugated PAC-1 antibody (for assessment of GPIIbIIIa activation). PBS (500 μl) is added to the sample after a 20 min incubation and the platelets are analyzed immediately by flow cytometry. […] A 530/30 band pass filter is used for FL-1 fluorescence. A 585/42 band pass filter is used for FL-2 fluorescence. FITC is measured in the FL-1 channel and PE is measured in the FL-2 channel. Data are analyzed using, for example, CellQuest software on a Macintosh PowerPC, or their equivalents.
Compounds were also tested by flow cytometry for the inhibition of SFLLR-induced GPIIbIIIa activation and P-selectin expression. […] PBS (500 μl) was added to the sample after a 20 min incubation and the platelets were analyzed immediately by flow cytometry. […] A 530/30 band pass filter was used for FL-1 fluorescence. […]

human platelet PDE5 = target: T1, human platelet PDE5 (Homo sapiens, UniProt O76074); assay: phosphodiesterase inhibition, PDE5; type: biochemical; conditions: up to 1 μM, in words
T1 construct: from tissue; host or cells: human platelets
Procedure: (§1) Intracellular cAMP generated by adenylyl cyclase in platelets is actively hydrolyzed by phosphodiesterase. […] Human platelets express PDE2, PDE3, and PDE5. Therefore, the compound was tested for its inhibitory effect on these phosphodiesterases using methods as described in Example 3.

platelets = assay: agonist-induced platelet granule secretion (P-selectin expression, flow cytometry); type: cell-based, human; conditions: for effect on PMA-induced platelet activation: in words
Procedure: In order to assay platelet activation by cell surface marker expression, fresh PRP is isolated from donors who have not ingested aspirin for two weeks prior to donation. PRP (40 μl) is incubated with known or suspected inhibitor in DMSO or DMSO alone for 15 min. The sample is then incubated with the indicated agonist (e.g., SFLLR) for 10 min. Following incubation of the sample with the indicated agonist, 10 μl of reaction mixture is transferred to 5 μl of phycoerythrin (PE)-conjugated AC 1.2 anti-P-selectin antibody (for assessment of P-selectin surface expression) or fluorescein isothiocyanate (FITC)-conjugated PAC-1 antibody (for assessment of GPIIbIIIa activation). PBS (500 μl) is added to the sample after a 20 min incubation and the platelets are analyzed immediately by flow cytometry. Flow cytometry can be performed using, for example, a Becton-Dickinson FACSCalibur flow cytometer or its equivalent. Fluorescent channels are set at logarithmic gain. Ten thousand particles are acquired for each sample. A 530/30 band pass filter is used for FL-1 fluorescence. A 585/42 band pass filter is used for FL-2 fluorescence. FITC is measured in the FL-1 channel and PE is measured in the FL-2 channel. Data are analyzed using, for example, CellQuest software on a Macintosh PowerPC, or their equivalents. […]
Each of the compounds was tested for inhibition of platelet activation in response to the agonists SFLLR (a thrombin mimic), U46619 (a thromboxane A2 mimic), ADP and the phorbol ester PMA.
Compounds were also tested by flow cytometry for the inhibition of SFLLR-induced GPIIbIIIa activation and P-selectin expression. In these experiments, freshly obtained PRP was prepared from healthy volunteers who had not ingested aspirin for two weeks prior to donation. Forty μl of PRP was incubated with inhibitor in DMSO or DMSO alone for 15 min. The sample was then incubated with the indicated agonist for 10 min. Following incubation of the sample with the indicated agonist, 10 μl of reaction mixture was transferred to 5 μl of PE-conjugated AC1.2 anti-P-selectin antibody (for assessment of P-selectin surface expression) or FITC-conjugated PAC-1 antibody (for assessment of GPIIbIIIa activation). PBS (500 μl) was added to the sample after a 20 min incubation and the platelets were analyzed immediately by flow cytometry. Flow cytometry was performed using a Becton-Dickinson FACSCalibur flow cytometer. Fluorescent channels were set at logarithmic gain. Ten thousand particles were acquired for each sample. A 530/30 band pass filter was used for FL-1 fluorescence. A 585/42 band pass filter was used for FL-2 fluorescence. FITC was measured in the FL-1 channel and PE was measured in the FL-2 channel. Data were analyzed using CellQuest software on a MacIntosh PowerPC.
Compound was tested for its ability to inhibit SFLLR-, U46619-, ADP-, PMA-, and collagen I-induced platelet α-granule secretion. In these assays, platelets were incubated with increasing doses of compound for 30 minutes. The platelets were then exposed to a maximally stimulatory dose of the indicated agonist. P-selectin surface expression was analyzed by flow cytometry using phycoerythrin-anti-P-selectin to monitor for α-granule secretion.

recombinant human PDE2 = recombinant human PDE2 (Homo sapiens, UniProt O00408); assay: phosphodiesterase inhibition, PDE2; type: biochemical; conditions: up to 1 μM, in words
Chain of recombinant human PDE2 (O00408 whole entry): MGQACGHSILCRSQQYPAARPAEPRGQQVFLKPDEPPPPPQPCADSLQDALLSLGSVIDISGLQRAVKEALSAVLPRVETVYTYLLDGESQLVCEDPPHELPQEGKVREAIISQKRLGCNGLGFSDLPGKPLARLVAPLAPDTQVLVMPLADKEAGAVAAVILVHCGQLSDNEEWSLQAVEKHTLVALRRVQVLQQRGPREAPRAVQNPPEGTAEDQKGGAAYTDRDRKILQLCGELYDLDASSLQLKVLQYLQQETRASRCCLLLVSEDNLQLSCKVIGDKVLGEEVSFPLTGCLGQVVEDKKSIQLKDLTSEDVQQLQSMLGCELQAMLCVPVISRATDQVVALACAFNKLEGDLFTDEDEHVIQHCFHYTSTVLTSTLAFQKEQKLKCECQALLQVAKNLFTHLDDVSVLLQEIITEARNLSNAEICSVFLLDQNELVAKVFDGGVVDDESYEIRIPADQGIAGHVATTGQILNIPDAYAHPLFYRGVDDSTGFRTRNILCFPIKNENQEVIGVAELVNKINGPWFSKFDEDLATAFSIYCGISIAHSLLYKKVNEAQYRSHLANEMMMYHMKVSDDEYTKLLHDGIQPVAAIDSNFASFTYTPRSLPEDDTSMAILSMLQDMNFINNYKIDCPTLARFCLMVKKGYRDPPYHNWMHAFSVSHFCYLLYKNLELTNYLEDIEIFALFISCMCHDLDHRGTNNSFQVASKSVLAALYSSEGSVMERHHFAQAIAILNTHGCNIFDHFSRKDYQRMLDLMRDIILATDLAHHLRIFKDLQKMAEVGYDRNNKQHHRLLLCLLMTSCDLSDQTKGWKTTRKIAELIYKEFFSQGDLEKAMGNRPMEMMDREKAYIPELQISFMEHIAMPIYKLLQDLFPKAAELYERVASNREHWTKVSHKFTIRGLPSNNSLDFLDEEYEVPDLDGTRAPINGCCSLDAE
Procedure: as §1

[2] = listed as Pyridazinone compound
[3] = listed as pyridazinone compound

## CC1CC(=O)NN=C1c1ccc(N)c([N+](=O)[O-])c1 (stereo not drawn) [6-(4-Amino-3-nitro-phenyl)-5-methyl-4,5-dihydro-2H-pyridazin-3-one]
[1]
  SFLLR-induced F-actin assembly: interferes with SFLLR-induced cytoskeleton rearrangement
Platelet GPIIbIIIa
  SFLLR-induced αIIbβ3 activation measured using PAC-1 antibodies: inhibited
Human platelet PDE5; [2]
  inhibition of human platelet PDE5: No significant inhibition
Human platelet PDE5; [3]
  inhibition of human platelet PDE5: little inhibition
platelets; ADP, collagen vs SFLLR, U46619
  IC50s for ADP- and collagen-induced granule release less potent than SFLLR/U46619: at least 25 fold
platelets; listed as Structure 8
  effect on PMA-induced platelet activation: did not inhibit
platelets; [3]
  effect on PMA-induced platelet activation: No inhibition
Recombinant human PDE2; [2]
  inhibition of recombinant human PDE2: No significant inhibition
Recombinant human PDE2; [3]
  inhibition of recombinant human PDE2: little inhibition
